The text below walks through data of ChEMBL document CHEMBL3217527, “The Synthesis and Evaluation of Dihydroquinazolin-4-ones and Quinazolin-4-ones as Thyroid Stimulating Hormone Receptor Agonists” (Medchemcomm, 2011).

For series [1], the target named is T1, Thyrotropin receptor (Homo sapiens, UniProt P16473). Kind of series: Agonist activity at TSHR (unknown origin) transiently transfected HEK-EM293 cells assessed as cAMP level after 1 hr by ELISA. Format: functional, cell-based. (Changes in cAMP serve as a functional read-out for many G protein-coupled receptors.)
T1 sequence (P16473 whole entry): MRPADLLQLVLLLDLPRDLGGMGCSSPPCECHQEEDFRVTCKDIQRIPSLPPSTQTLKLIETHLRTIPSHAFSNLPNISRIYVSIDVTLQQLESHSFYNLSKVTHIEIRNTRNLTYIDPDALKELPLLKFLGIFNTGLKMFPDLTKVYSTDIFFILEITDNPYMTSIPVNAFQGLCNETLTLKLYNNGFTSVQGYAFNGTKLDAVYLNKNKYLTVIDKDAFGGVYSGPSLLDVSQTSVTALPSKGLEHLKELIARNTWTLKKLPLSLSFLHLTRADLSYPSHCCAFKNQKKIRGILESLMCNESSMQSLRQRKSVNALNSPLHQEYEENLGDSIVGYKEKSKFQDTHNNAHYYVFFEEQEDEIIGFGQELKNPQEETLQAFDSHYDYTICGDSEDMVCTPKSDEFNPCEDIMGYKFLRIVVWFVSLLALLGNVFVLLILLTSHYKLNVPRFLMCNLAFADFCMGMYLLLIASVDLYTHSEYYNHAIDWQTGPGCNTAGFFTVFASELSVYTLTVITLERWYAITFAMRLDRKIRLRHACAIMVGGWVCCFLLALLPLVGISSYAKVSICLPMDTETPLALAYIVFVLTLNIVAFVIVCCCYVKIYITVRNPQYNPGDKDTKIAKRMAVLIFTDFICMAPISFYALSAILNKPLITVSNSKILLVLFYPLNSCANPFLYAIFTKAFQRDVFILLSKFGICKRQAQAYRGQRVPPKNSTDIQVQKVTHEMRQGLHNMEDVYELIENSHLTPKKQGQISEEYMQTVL
Series [2] in a line: Half life in acidic aqueous conditions at pH 2. Type of series: physicochemical. To be noted: acidic aqueous solution.
For series [3], the target named is Lutropin-choriogonadotropic hormone receptor (Homo sapiens, UniProt P22888). Briefly: Agonist activity at LHCGR (unknown origin).
Lutropin-choriogonadotropic hormone receptor, sequence (P22888 whole entry): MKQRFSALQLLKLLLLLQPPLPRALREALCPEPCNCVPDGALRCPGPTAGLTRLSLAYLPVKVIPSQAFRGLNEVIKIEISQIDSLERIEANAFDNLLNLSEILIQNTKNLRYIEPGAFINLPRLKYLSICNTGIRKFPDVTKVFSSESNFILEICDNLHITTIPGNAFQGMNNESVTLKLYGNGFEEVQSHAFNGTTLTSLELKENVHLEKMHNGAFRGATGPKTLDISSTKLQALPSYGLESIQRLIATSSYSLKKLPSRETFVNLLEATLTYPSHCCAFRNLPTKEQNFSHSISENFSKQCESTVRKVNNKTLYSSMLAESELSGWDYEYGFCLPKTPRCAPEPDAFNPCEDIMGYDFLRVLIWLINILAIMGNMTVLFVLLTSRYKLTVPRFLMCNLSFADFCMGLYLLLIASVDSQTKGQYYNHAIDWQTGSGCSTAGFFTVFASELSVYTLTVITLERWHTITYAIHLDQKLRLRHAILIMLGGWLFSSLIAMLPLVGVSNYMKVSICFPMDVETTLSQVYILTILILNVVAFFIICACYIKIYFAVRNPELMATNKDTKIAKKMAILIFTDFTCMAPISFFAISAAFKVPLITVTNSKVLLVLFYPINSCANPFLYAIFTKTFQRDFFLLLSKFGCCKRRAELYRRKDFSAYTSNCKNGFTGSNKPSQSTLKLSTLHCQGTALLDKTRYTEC
In series [4] the target is T1, Thyrotropin receptor. Briefly: Agonist activity at TSHR (unknown origin).

pEC50: −log10 of the molar value.

By pEC50 is commonly meant −log10 of the EC50, conventionally taken in molar units. By half-life is commonly meant how long it takes for the measured level to halve. The low end stands for fast loss, the high end for slow loss.

As to `COc1ccc(C2Nc3ccccc3C(=O)N2Cc2ccco2)cc1COc1ccc(NC(C)=O)cc1` (configuration not stated), at Thyrotropin receptor [1], the negative logarithm of the EC50 (pEC50) was 5.94.

With `COc1ccc(C2Nc3ccccc3C(=O)N2Cc2ccccc2)cc1COc1ccccc1` (configuration not stated), on Thyrotropin receptor [1], the pEC50 was 5.59.

Turning to `COc1ccc(-c2nc3ccccc3c(=O)n2Cc2ccco2)cc1COc1ccc(NC(C)=O)cc1`, at Thyrotropin receptor [1], the negative-log EC50 (pEC50) was 6.03.

For `COc1ccc(C2Nc3ccccc3C(=O)N2Cc2ccccc2)cc1CSc1ccc(NC(C)=O)cc1` (configuration not stated), at Thyrotropin receptor [1], the pEC50 is 7.10.

Consider `COc1ccc(C2Nc3ccc(O)cc3C(=O)N2Cc2ccccc2)cc1COc1ccc(NC(C)=O)cc1` (configuration not stated), for which the pEC50 at Thyrotropin receptor [1] was 6.48.

Turning to `COc1ccc(C2Nc3cccc(O)c3C(=O)N2Cc2ccccc2)cc1COc1ccc(NC(C)=O)cc1` (configuration not stated), on Thyrotropin receptor [1], the pEC50 was 7.05. Besides, the half-life in series [2] was 3 h.

For the compound `COc1ccc(C2Nc3ccccc3C(=O)N2Cc2ccccc2)cc1COc1ccc(NC(C)=O)cc1` (configuration not stated), the pEC50 at Thyrotropin receptor [1] was 6.54.

On to `CC(=O)Nc1ccc(OCc2cccc(C3Nc4ccccc4C(=O)N3Cc3ccccc3)c2)cc1` (configuration not stated), for which the pEC50 on Thyrotropin receptor [1] was 5.73.

With `COc1cccc(-c2nc(SC)nc3sc(C(=O)NC(C)(C)C)c(N)c23)c1`, the pEC50 is 6.66 in series [3] and 5.11 on Thyrotropin receptor [4].

`COc1ccc(C2Nc3cccc(O)c3C(=O)N2Cc2ccccc2)cc1CSc1ccc(NC(C)=O)cc1` (configuration not stated): the pEC50 at Thyrotropin receptor [1] is 7.74.

Turning to `COc1ccc(C2Nc3cccc(OC)c3C(=O)N2Cc2ccccc2)cc1COc1ccc(NC(C)=O)cc1` (configuration not stated), the pEC50 on Thyrotropin receptor [1] is 5.35.

Consider `COc1ccc(-c2nc3ccccc3c(=O)n2Cc2ccccc2)cc1COc1ccc(NC(C)=O)cc1`, for which the pEC50 at Thyrotropin receptor [1] was 6.02.

In the case of `COc1ccc(-c2nc3cccc(O)c3c(=O)n2Cc2ccccc2)cc1COc1ccc(NC(C)=O)cc1`, the pEC50 on Thyrotropin receptor [1] is 6.26.

With `COc1ccc(C2Nc3ccccc3C(=O)N2Cc2ccncc2)cc1COc1ccc(NC(C)=O)cc1` (configuration not stated), the pEC50 on Thyrotropin receptor [1] was 5.40.

In the case of `COc1ccc(C2Nc3cccc(F)c3C(=O)N2Cc2ccccc2)cc1COc1ccc(NC(C)=O)cc1` (configuration not stated), on Thyrotropin receptor [1], the pEC50 is 6.55.

For the compound `COc1ccc(OCc2cc(C3Nc4ccccc4C(=O)N3Cc3ccccc3)ccc2OC)cc1` (configuration not stated), the pEC50 at Thyrotropin receptor [1] is 5.67.

Consider `COc1ccc(C2Nc3ccccc3C(=O)N2CCc2ccccc2)cc1COc1ccc(NC(C)=O)cc1` (configuration not stated), for which the pEC50 at Thyrotropin receptor [1] is 6.37.

As for `COc1ccc(C2Nc3ccccc3C(=O)N2c2ccccc2)cc1COc1ccc(NC(C)=O)cc1` (configuration not stated), the pEC50 on Thyrotropin receptor [1] is 5.29.

For `COc1ccc(C2Nc3ccccc3C(=O)N2Cc2ccccc2)cc1COc1cccc(NC(C)=O)c1` (configuration not stated), on Thyrotropin receptor [1], the pEC50 is 5.36.

Turning to `CCCCN1C(=O)c2ccccc2NC1c1ccc(OC)c(COc2ccc(NC(C)=O)cc2)c1` (configuration not stated), on Thyrotropin receptor [1], the pEC50 was 6.08.
